Data: PMC12024397, “Structure–Activity Study of the Antimicrobial Lipopeptide Humimycin A and Screening Against Multidrug-Resistant Staphylococcus aureus” (Antibiotics, 2025)
≈ marks a conversion by molar mass, not a printed value. Non-standard residues stand in square brackets, D forms with d. Residues, ends and D or L forms follow the SMILES beside them. *: point of attachment. Tetradecanoyl(3R-OH) = CCCCCCCCCCC[C@@H](O)CC(=O)*; Tetradecanoyl(3S-OH) = CCCCCCCCCCC[C@H](O)CC(=O)*

Legend:
S. aureus strain 4-133 = details: broth microdilution, triplicate; isolate 4-133, resistance PEN-CEF-CTX-FOX-CIP-CHL-KAN-GEN
Text: (§1) The bacterial strains used in this study included S. aureus ATCC 29213 and ATCC 43300, B. subtilis ATCC […], E. coli ATCC 25922, P. aeruginosa ATCC 27853, and S. enterica serovar Typhimurium ATCC 14028, all of which were purchased from Cedarlane, Canada. Additionally, a collection of 19 S. aureus strains, ranging from antibiotic-sensitive to multidrug-resistant, and originating from clinical intramammary infections (IMI), was selected from the Mastitis Pathogen Culture Collection of the Canadian Bovine Mastitis Research Network (Université de Montréal, St-Hyacinthe, QC, Canada). These strains, previously used in other studies, were also included in this work. S. aureus ATCC 29213 and B. subtilis ATCC 6633 were cultured in Tryptic Soy Broth (TSB) (Difco^TM, Becton, Dickenson & Company, Spark, MD, USA). E. coli ATCC 25922 and P. aeruginosa ATCC 27853 were grown in Luria–Bertani (LB) broth (Fisher Scientific, Fair Lawn, NJ, USA). S. enterica serovar Typhimurium ATCC 14028 was propagated in Nutrient Broth (NB) (Oxoid, Basingstoke, UK). All bacterial cultures were incubated overnight at 37 °C before use and during the performance of assays.
(§2) MIC assays were performed using the broth microdilution method in 96-well plates. Analogs were serially diluted two-fold from stock solutions. The plates were incubated overnight at 37 °C and bacterial growth was monitored by measuring the absorbance at 595 nm over 18–20 h and the assay was performed in triplicate.

S. aureus strain 4-145 = details: broth microdilution, triplicate; isolate 4-145, no resistance profile listed
Text: as §1, §2

S. aureus strain A-165 = details: broth microdilution, triplicate; isolate A-165, resistance PEN-CEF-CTX-FOX-CIP-CC-KAN-GEN-STR-P/N
Text: as §1, §2

S. aureus strain 4-153 = details: broth microdilution, triplicate; isolate 4-153, no resistance profile listed
Text: as §1, §2

S. aureus strain 4-159 = details: broth microdilution, triplicate; isolate 4-159, no resistance profile listed
Text: as §1, §2

S. aureus strain 4-144 = details: broth microdilution, triplicate; isolate 4-144, resistance PEN-AMC-CEF-CTX-FOX-CIP-CHL-ERY-TET
Text: as §1, §2

S. aureus strain 4-157 = details: broth microdilution, triplicate; isolate 4-157, no resistance profile listed
Text: as §1, §2

S. aureus strain 4-172 = details: broth microdilution, triplicate; isolate 4-172, resistance PEN-AMC-CEF-CTX-FOX
Text: as §1, §2

S. aureus strain 4-140 = details: broth microdilution, triplicate; isolate 4-140, resistance TET
Text: as §1, §2

S. aureus strain 4-162 = details: broth microdilution, triplicate; isolate 4-162, no resistance profile listed
Text: as §1, §2

S. aureus strain 4-121 = details: broth microdilution, triplicate; isolate 4-121, no resistance profile listed
Text: as §1, §2

S. aureus strain 4-156 = details: broth microdilution, triplicate; isolate 4-156, no resistance profile listed
Text: as §1, §2

S. aureus strain 4-131 = details: broth microdilution, triplicate; isolate 4-131, no resistance profile listed
Text: as §1, §2

S. aureus strain 4-173 = details: broth microdilution, triplicate; isolate 4-173, no resistance profile listed
Text: as §1, §2

S. aureus strain 4-139 = details: broth microdilution, triplicate; isolate 4-139, resistance PEN-ERY-CC-TET-KAN
Text: as §1, §2

S. aureus strain 4-134 = details: broth microdilution, triplicate; isolate 4-134, resistance PEN-VAN-CEF-CTX-FOX-ERY-CC-TET-KAN-GEN-STR
Text: as §1, §2

S. aureus strain 4-138 = details: broth microdilution, triplicate; isolate 4-138, no resistance profile listed
Text: as §1, §2

S. aureus strain 4-170 = details: broth microdilution, triplicate; isolate 4-170, no resistance profile listed
Text: as §1, §2

Row | SMILES | MIC (S. aureus strain 4-133) | MIC (S. aureus strain 4-145) | MIC (S. aureus strain A-165) | MIC (S. aureus strain 4-153) | MIC (S. aureus strain 4-159) | MIC (S. aureus strain 4-144) | MIC (S. aureus strain 4-157) | MIC (S. aureus strain 4-172) | MIC (S. aureus strain 4-140) | MIC (S. aureus strain 4-162) | MIC (S. aureus strain 4-121) | MIC (S. aureus strain 4-156) | MIC (S. aureus strain 4-131) | MIC (S. aureus strain 4-173) | MIC (S. aureus strain 4-139) | MIC (S. aureus strain 4-134) | MIC (S. aureus strain 4-138) | MIC (S. aureus strain 4-170)
1 | CCCCCCCCCCC[C@@H](O)CC(=O)N[C@@H](Cc1c[nH]c2ccccc12)C(=O)N[C@@H](CO)C(=O)N[C@H](Cc1c[nH]c2ccccc12)C(=O)N[C@@H](Cc1ccccc1)C(=O)N[C@@H](C(=O)N[C@H](C(=O)N[C@H](C(=O)O)C(C)C)C(C)C)[C@H](C)O [12R] ({Tetradecanoyl(3R-OH)}-WS[dW]F[dT]VV-OH) | 256 µg/mL (≈ 223 µM) | 16 µg/mL (≈ 13.9 µM) | 256 µg/mL (≈ 223 µM) | 16 µg/mL (≈ 13.9 µM) | 8 µg/mL (≈ 6.95 µM) | 8 µg/mL (≈ 6.95 µM) | 16 µg/mL (≈ 13.9 µM) | 8 µg/mL (≈ 6.95 µM) | 8 µg/mL (≈ 6.95 µM) | >256 µg/mL | 32 µg/mL (≈ 27.8 µM) | 4 µg/mL (≈ 3.48 µM) | >256 µg/mL | 8 µg/mL (≈ 6.95 µM) | 4 µg/mL (≈ 3.48 µM) | >256 µg/mL | 4 µg/mL (≈ 3.48 µM) | 4 µg/mL (≈ 3.48 µM)
2 | CCCCCCCCCCC[C@H](O)CC(=O)N[C@@H](Cc1c[nH]c2ccccc12)C(=O)N[C@@H](CO)C(=O)N[C@H](Cc1c[nH]c2ccccc12)C(=O)N[C@@H](Cc1ccccc1)C(=O)N[C@@H](C(=O)N[C@H](C(=O)N[C@H](C(=O)O)C(C)C)C(C)C)[C@H](C)O [12S] ({Tetradecanoyl(3S-OH)}-WS[dW]F[dT]VV-OH) | 256 µg/mL (≈ 223 µM) | 32 µg/mL (≈ 27.8 µM) | 256 µg/mL (≈ 223 µM) | 16 µg/mL (≈ 13.9 µM) | 16 µg/mL (≈ 13.9 µM) | 16 µg/mL (≈ 13.9 µM) | 16 µg/mL (≈ 13.9 µM) | 8 µg/mL (≈ 6.95 µM) | 16 µg/mL (≈ 13.9 µM) | >256 µg/mL | 32 µg/mL (≈ 27.8 µM) | 8 µg/mL (≈ 6.95 µM) | >256 µg/mL | 16 µg/mL (≈ 13.9 µM) | 8 µg/mL (≈ 6.95 µM) | >256 µg/mL | 4 µg/mL (≈ 3.48 µM) | 8 µg/mL (≈ 6.95 µM)
3 | CCCCCCCCCCC[C@@H](O)CC(=O)N[C@@H](Cc1c[nH]c2ccccc12)C(=O)N[C@@H](CO)C(=O)N[C@H](Cc1c[nH]c2ccccc12)C(=O)N[C@@H](Cc1ccccc1)C(=O)N[C@@H](C(=O)N[C@@H](C)C(=O)N[C@H](C(=O)O)C(C)C)[C@H](C)O [13R] ({Tetradecanoyl(3R-OH)}-WS[dW]F[dT]AV-OH) | >256 µg/mL | 16 µg/mL (≈ 14.3 µM) | >256 µg/mL | 32 µg/mL (≈ 28.5 µM) | 16 µg/mL (≈ 14.3 µM) | 8 µg/mL (≈ 7.13 µM) | 32 µg/mL (≈ 28.5 µM) | 8 µg/mL (≈ 7.13 µM) | 16 µg/mL (≈ 14.3 µM) | >256 µg/mL | 256 µg/mL (≈ 228 µM) | 16 µg/mL (≈ 14.3 µM) | >256 µg/mL | 8 µg/mL (≈ 7.13 µM) | 8 µg/mL (≈ 7.13 µM) | >256 µg/mL | 16 µg/mL (≈ 14.3 µM) | 8 µg/mL (≈ 7.13 µM)
4 | CCCCCCCCCCC[C@H](O)CC(=O)N[C@@H](Cc1c[nH]c2ccccc12)C(=O)N[C@@H](CO)C(=O)N[C@H](Cc1c[nH]c2ccccc12)C(=O)N[C@@H](Cc1ccccc1)C(=O)N[C@@H](C(=O)N[C@@H](C)C(=O)N[C@H](C(=O)O)C(C)C)[C@H](C)O [13S] ({Tetradecanoyl(3S-OH)}-WS[dW]F[dT]AV-OH) | >256 µg/mL | 32 µg/mL (≈ 28.5 µM) | >256 µg/mL | 32 µg/mL (≈ 28.5 µM) | 8 µg/mL (≈ 7.13 µM) | 16 µg/mL (≈ 14.3 µM) | 32 µg/mL (≈ 28.5 µM) | 8 µg/mL (≈ 7.13 µM) | 16 µg/mL (≈ 14.3 µM) | >256 µg/mL | 256 µg/mL (≈ 228 µM) | 8 µg/mL (≈ 7.13 µM) | >256 µg/mL | 8 µg/mL (≈ 7.13 µM) | 8 µg/mL (≈ 7.13 µM) | >256 µg/mL | 16 µg/mL (≈ 14.3 µM) | 8 µg/mL (≈ 7.13 µM)
